For 43 compounds, IC50 results are on record in PubChem BioAssay AID2305 (GlaxoSmithKline (GSK), 2010).

The term IC50 denotes the concentration that gives 50% inhibition.

The assay relates to P. falciparum 3D7 growth, pLDH absorbance. In words: blood-stage malaria parasite growth potency – strain 3D7, dose response (AID 2305).
With `C1=CN(Cc2ccccc2)C=CC1=C1C=Nc2ccccc21`, the 50% inhibitory concentration (IC50) was determined as 760 nM.

Take `O=C(Nc1ccccc1)c1cccc(Nc2nccc(Nc3ccc(Oc4ccccc4)cc3)n2)c1`: the IC50 was 1550 nM.

In turn, `CN1CCN(CC(=O)Nc2cccc(-c3ccc(-c4nc5ccc(F)cc5[nH]4)s3)c2)CC1` registered an IC50 of 680 nM.

On to `Cc1cc(NC(=O)Nc2ccc(Cl)cc2F)c2ccccc2n1`, for which the IC50 was determined as 550 nM.

Consider `Cc1cc(NC(=O)c2cc(S(=O)(=O)N3CCCCC3)ccc2C)no1`, for which the 50% inhibitory concentration (IC50) stood at 720 nM.

On to `C[C@H](Cc1ccc(C[C@@H](C)NC[C@H](O)c2cccc(Cl)c2)cc1)NC[C@H](O)COc1ccccc1`, for which the IC50 was found to be 1170 nM.

`NC1=NCN(OCc2ccc(Cl)c(Cl)c2)C(N)=N1` showed an IC50 of 190 nM.

As for `CN1CCN(C(C(=O)NCc2cc(Cl)cc(Cl)c2)c2ccccc2-c2ccsc2)CC1` (stereo not drawn), the IC50 turned out to be 940 nM.

`CC(C)c1ccc2c(c1)c(SC(C)(C)C)c(CC(C)(C)C#N)n2Cc1ccc(Cl)cc1`: the IC50 amounted to 220 nM.

Compound `Cc1[nH]c(C)c(-c2ccc(Oc3ccc(Cl)c(Cl)c3)cc2)c(=O)c1Cl` came in with a half-maximal inhibitory concentration (IC50) of 110 nM.

Compound `CN(C)Cc1ccc2cc(NC(=O)c3ccc(-c4ccc(Cl)cc4)cc3)ccc2c1` yielded an IC50 of 1340 nM.

As for `O=C(Nc1cccc(-c2cccc(-c3nc4ccccc4[nH]3)c2)c1)c1ccncc1`, the IC50 was 480 nM.

The compound `O=c1cc(NCCCNCc2ccc(Cl)c(Cl)c2)[nH]c2cc(Cl)ccc12` gave an IC50 of 920 nM.

The compound `COc1cc(C=CC(=O)N2CCC(CCN3CCC(c4c[nH]c5ccccc45)CC3)CC2)cc(OC)c1` yielded an IC50 of 910 nM.

On to `c1cc(-c2ccc(CNCc3ccsc3)cc2)cc(-c2nc3ccccc3[nH]2)c1`, for which the IC50 was found to be 160 nM.

In the case of `CCN1C(=O)C(CC(=O)Nc2cccc(Cl)c2)N(Cc2ccc(OC)c(OC)c2)C1=S` (stereo not drawn), the half-inhibitory concentration (IC50) is 610 nM.

`CCNc1cc(C(=O)N[C@@H](Cc2cccc(F)c2)[C@H](O)CNC(C)CCCC(C)C)cc(N2CCCCS2(=O)=O)c1` (stereo partly drawn) yielded a half-maximal inhibitory concentration (IC50) of 600 nM.

The compound `COc1cc(F)c2ncc(Cl)c([C@@H](O)CN3CCC(NCc4cc5c(cn4)OCCO5)CC3)c2c1` gave an IC50 of 100 nM.

The compound `O=C(N[C@H]1CCN(Cc2ccc(OCCN3CCCC3)c3ccccc23)C1)c1ccc(Cl)c(Cl)c1` gave an IC50 of 750 nM.

In the case of `c1cc(CN2CCCCC2)cc(-c2ccc(-c3nc4ccccc4[nH]3)cc2)c1`, the IC50 was determined as 890 nM.

For the compound `COc1ccc(CNC2Cc3ccccc3C2)cc1-c1ccc(S(=O)(=O)NCc2cccnc2)s1`, the IC50 was determined as 1110 nM.

The compound `COc1ccc(C=NNc2cc(C)nc3c(C)cccc23)c2ccccc12` had an IC50 of 220 nM.

`CC(NCC(O)Cn1c2ccccc2c2ccccc21)c1ccccc1` (stereo not drawn) showed an IC50 of 930 nM.

Turning to `O=C(/C=C/c1ccc(Cl)c(Cl)c1)N1CCC(CNCc2cccc3cc[nH]c23)CC1`, the IC50 came to 1220 nM.

Take `CC(=O)C1(c2ccccc2)CCN(CCC2(c3ccc(Cl)c(Cl)c3)CN(C(=O)C3CCCC3)CCO2)CC1` (stereo not drawn): the IC50 worked out at 800 nM.

Consider `CC[C@H](N=C(Nc1ccc(C#N)cc1O)Nc1cccc(Cl)c1Cl)c1ccccc1`, for which the IC50 stood at 820 nM.

In turn, `N#CC1(CCCNCCc2ccc(O)cc2)CCCc2c(O)cccc21` (stereo not drawn) yielded an IC50 of 760 nM.

With `O=C(C=Cc1ccc(Cl)c(Cl)c1)NCCCCCN1CCCC(CCCNS(=O)(=O)c2ccc(Br)cc2)C1` (stereo not drawn), the concentration for half-maximal inhibition (IC50) was 960 nM.

The compound `CC(C)CN1CCCN(Cc2cccc(NC(=O)c3ccc(-c4ccccc4)cc3)c2)CC1` showed an IC50 of 880 nM.

The compound `CC(C)(CNC(=O)C1CCN(CCOc2ccc(F)c(F)c2)CC1)c1nc(-c2ccc(Cl)c(O)c2)c(-c2ccncc2)[nH]1` yielded an IC50 of 320 nM.

In turn, `COc1ccc(CCn2c(=N)c(C(=O)NC3CCCC3)cc3c(=O)n4ccccc4nc32)cc1` returned an IC50 of 680 nM.

Turning to `CCOc1cc(CNCCCCCCNCc2cc(OCC)c(OCC)c3ccccc23)c2ccccc2c1OCC`, the IC50 was found to be 280 nM.

In turn, `CC(C)(C)c1ccc(-c2cc3c(ccc4nc(N)nc(N)c43)[nH]2)cc1` showed an IC50 of 110 nM.

On to `CCCc1ccc(-c2csc(NC(=O)c3ccc([N+](=O)[O-])o3)n2)cc1`, for which the IC50 is 1210 nM.

Compound `CCN(CC)c1nc(N)c2c(N)nc3c(c2c1C#N)C(=O)CN3Cc1ccccc1` displayed a half-inhibitory concentration (IC50) of 70 nM.

`O=C(Nc1cccc(-c2ccc(-c3nc4ccccc4[nH]3)cc2)c1)Nc1ccc2c(c1)OCO2`: the IC50 worked out at 670 nM.

In turn, `CCN1CCC(N(Cc2ccc(-c3ccc(C(F)(F)F)cc3)cc2)C(=O)Cn2c(CCc3cccc(F)c3F)nc(=O)c3ccccc32)CC1` registered a concentration for half-maximal inhibition (IC50) of 1060 nM.

`CC(C)c1ccc(CN(C)CCCCNC(=O)c2ccc(NC(=O)c3ccc(Cl)cc3)cc2)cc1` registered an IC50 of 990 nM.

For `O=C(Cc1ccc(NC(=O)c2ccc(O)c(-c3ccc(Cl)c(Cl)c3)c2)cc1)NCc1cccc(C(F)(F)F)c1`, the IC50 came to 880 nM.

Regarding `Cc1ccc2[nH]c3c(NCCCN(C)C)ncnc3c2c1`, the IC50 amounted to 650 nM.

`COc1ccc(CNc2nc(NCc3ccccc3)c3cc(OC)c(OC)cc3n2)cc1OC` displayed an IC50 of 540 nM.

Turning to `CNC(=O)COC(=O)c1c2c(nc3ccccc13)C(=Cc1ccc3c(c1)OCO3)CCC2`, the IC50 worked out at 640 nM.

Regarding `O=C(/C=C/C=C/c1ccccc1)NC1CCC(CN2CCC(c3c[nH]c4ccccc34)CC2)CC1` (stereo not drawn), the IC50 was 870 nM.
